Read-outs that look alike come from different tables or passages of the source.
Legend:
ROS1 = ROS1 degradation in Ba/F3 cells (WES immunoblotting); assay type: cell-based; details: for DC50: concentration needed to reduce ROS1 protein by 50%, Ba/F3 cells; for Dmax (%) (ROS1): maximal degradation of ROS1 in Ba/F3 cells
Method in brief: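 ROS1 and phospho-ROS1 (Tyr2274/2334) in Ba/F3 lysates quantified by capillary immunoassay (WES) with chemiluminescent detection, duplicate experiments. Levels expressed as AUC of the chemiluminescence peak.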

[1] = Metabolic stability in rat microsomes; assay type: in vitro ADME; details: 250 nM compound, NADPH, 37 °C; for microsomal CLint at 1 h, 0.25 µM / half-life at 1 h, 0.25 µM: rat, pooled rat microsomes, pH 7.4; for half-life at 1 h, 0.25 µM: read-out: metabolic stability in rat microsomes T1/2
Protocol: (§1) Pooled human and rat microsomes were prepared and stored at −80 °C prior to use. A master-mix containing microsome, phosphate buffer, and test compound (9 series) solution was made as follows: (1) 3 μL of microsome (20 mg/mL) was diluted with mixed 30 μL of potassium phosphate buffer (pH 7.4; 10×) and 246 μL of water; (2) 3 μL of 25 μM drug solution was added to the microsome; (3) the master solution was prewarmed at 37 °C for 5 min. NADPH solution A (15 μL) and NADPH solution B (3 μL) from Promega were added to the above-mentioned master solution to initiate the reaction. The final concentration of 9 compounds in the reaction system was 250 nM. An aliquot of 20 μL was pipetted from the reaction solution and stopped by the addition of 180 μL of cold MeCN containing 25 ng of Tamoxifen-(N,N-dimethyl-13C2)-15N as an internal standard at the designated time points (0, 5, 15, 30, 45, and 60 min). The incubation solution was vortexed-mixed (800 rpm/10 min) and centrifuged at 3500 rpm for 10 min to precipitate proteins. The supernatant was collected and used for the LC/MS/MS analysis. The natural log of the remaining percentage of the test compound was plotted against time and the gradient of the line was determined.

Ba/F3 ROS1-G2032R = assay: Antiproliferation assay; assay type: cell-based, mouse; details: Ba/F3 cells, cell growth inhibition, 72 h
[2] = Metabolic stability in human microsomes; assay type: in vitro ADME; details: 250 nM compound, NADPH, 37 °C; for microsomal CLint at 1 h, 0.25 µM / half-life at 1 h, 0.25 µM: human, pooled human microsomes, pH 7.4; for half-life at 1 h, 0.25 µM: read-out: metabolic stability in human microsomes T1/2
Protocol: as §1

[3] = Pharmacokinetics study in Sprague–Dawley rats; assay type: in vivo; details: rat; for bioavailability: 10 mg/kg po vs 1 mg/kg iv; for AUC: read-out: AUC (po)
Protocol: Four to 6 weeks old Sprague–Dawley rats [Crl: CD (SD)] (SPF/VAF) were purchased from Charles River (Wilmington MA). Animals were quarantined/acclimated for 2–6 weeks prior to dose initiation. Sprague–Dawley rats were given oral administration of test compounds (20% PG, 5% Solutol, and 75% of 20% HP-β-CD in water) at different dose levels. After treatment with the compounds, whole blood was collected from each study animal by puncture of the tail vein (0.4 mL of whole blood from rats) into tubes containing K2EDTA at each time point. The plasma samples were divided into 2 aliquots (approximately equal in volume) and stored frozen at −75 ± 15 °C within 2 h of the collection until analysis.
The stock solution of the test compound (0.01 M) in DMSO was prepared and stored at −20 ± 5 °C. The desired serial concentrations of working reference analyte solutions were achieved by diluting a stock analyte solution with 50% acetonitrile (0.1% formic acid) in water solution. The bioanalytical LC–MS/MS method was developed for quantitative determination of each test compound in Sprague–Dawley rat plasma with acceptable selectivity, sensitivity, calibration curve, precision, and accuracy. The analytical method is applicable for the determination of test compounds in Sprague–Dawley rat plasma with a lower limit of quantification of 10.0 ng/mL and an upper limit of quantification of 5000 ng/mL. Five microliters of diluted supernatant was injected into the LC–MS/MS system (TSQ Quantis) and a SynergiTM 4 μm Fusion-RP 80 Å (50 × 2 mm) column using gradient elution and a Triple Quad mass spectrometer) for quantitative analysis. The mobile phases used were 0.1% formic acid in deionized water and 0.1% formic acid in acetonitrile. The pharmacokinetic parameters T1/2 (the biological half-life), Cmax (maximal concentration), Tmax (time at which Cmax is observed), and AUC (area under the plasma concentration–time curve) were calculated from the plasma concentration versus time data using WinNonlin (PhoenixTM, version 8.1, Mountain View, CA, USA).

[4] = Pharmacokinetics study in Sprague–Dawley rats; assay type: in vivo; details: rat
Log P measurement = assay type: physicochemical
Text: An important physicochemical property for a PROTAC molecule is its lipophilicity that largely dictates its pharmaceutical performance such as absorption, permeability, and distribution.

[5] = tested on: Ba/F3 CD74-ROS1 non mutant; assay: Antiproliferation assay (Alamar Blue, 72 h); assay type: cell-based, mouse; details: cell growth inhibition
Ba/F3 ROS1 L2086F = assay: Antiproliferation assay; assay type: cell-based; details: Mus musculus, BaF3; Ba/F3 cells, cell growth inhibition
Text: To assess targeted degradation of ROS1 fusion proteins, we first established a mouse pro-B cell line Ba/F3 as a model expressing the CD74-ROS1 oncogene or CD74-ROS1 with clinically observed secondary/tertiary mutations. The Ba/F3 cell line is dependent on interleukin-3 for survival and proliferation. Upon transduction of oncogenic ROS1, Ba/F3 cells become independent of interleukin-3 but dependent on the transduced driver gene. The Ba/F3 models have been effectively employed in the discovery and preclinical development of next generation ROS1 inhibitors.[11],[14],[15] We have tested ROS1 inhibitors against these Ba/F3 cells to validate their sensitivity and resistance to ROS1 inhibition.
Ba/F3 immortalized murine bone marrow–derived pro-B cells were obtained from Creative Biogene (Shirley, NY) and cultured in RPMI supplemented with 10% FBS and IL3 (0.5 ng/mL). Ba/F3 cells expressing ROS1 variants were maintained in RPMI supplemented with 10% FBS and puromycin (0.7 mg/mL). Crizotinib, ceritinib, brigatinib, repotrectinib, and lorlatinib were purchased from MedChem Express. Each compound was dissolved in DMSO and serially diluted in RPMI for cell culture experiments.
(§2) To assess the 72 h effect of drug treatment on cell proliferation, 2000 to 3000 cells were plated in replicates of three in 96-well plates. The plates were placed in an incubator at 37 °C, 5% CO2 for 72 h. Following drug treatments, the cells were incubated with the Alamar Blue Assay reagent (BioRad), 5 μL each well for 4 h at 37 °C and 5% CO2. Luminescence was measured on a multiplate reader and analyzed. […] IC50 values were determined using a nonlinear regression model with a sigmoidal dose response in GraphPad. The data were collected based on triplicate experiments, and presented as mean ± SD.
cDNA encoding CD74-ROS1 or mutant CD74–ROS1 was cloned into retroviral expression vectors (pLenti), and viruses were generated in HEK293T cells by transfecting with packaging plasmids. The resulting virus was used to infect Ba/F3 cells. After retroviral infection, Ba/F3 cells were selected by incubation with puromycin (0.7 mg/mL) for 2 weeks. For Ba/F3 cells infected by the CD74–ROS1 variants, IL3 was withdrawn from the culture medium at least 2 weeks before the experiments.

Ba/F3 ROS1 D2033N = assay: Antiproliferation assay; assay type: cell-based; details: Mus musculus, BaF3; Ba/F3 cells, cell growth inhibition
Text: (§3) To assess targeted degradation of ROS1 fusion proteins, we first established a mouse pro-B cell line Ba/F3 as a model expressing the CD74-ROS1 oncogene or CD74-ROS1 with clinically observed secondary/tertiary mutations. The Ba/F3 cell line is dependent on interleukin-3 for survival and proliferation. Upon transduction of oncogenic ROS1, Ba/F3 cells become independent of interleukin-3 but dependent on the transduced driver gene.
(§4) Ba/F3 immortalized murine bone marrow–derived pro-B cells were obtained from Creative Biogene (Shirley, NY) and cultured in RPMI supplemented with 10% FBS and IL3 (0.5 ng/mL). Ba/F3 cells expressing ROS1 variants were maintained in RPMI supplemented with 10% FBS and puromycin (0.7 mg/mL). […] Each compound was dissolved in DMSO and serially diluted in RPMI for cell culture experiments.
as §2
(§5) The resulting virus was used to infect Ba/F3 cells. After retroviral infection, Ba/F3 cells were selected by incubation with puromycin (0.7 mg/mL) for 2 weeks. For Ba/F3 cells infected by the CD74–ROS1 variants, IL3 was withdrawn from the culture medium at least 2 weeks before the experiments.

Ba/F3 ROS1 G2032R-F2075V = assay: Antiproliferation assay; assay type: cell-based; details: Mus musculus, BaF3; Ba/F3 cells, cell growth inhibition
Text: as §3, §4, §2, §5

Ba/F3 ROS1 L2026M = assay: Antiproliferation assay; assay type: cell-based; details: Mus musculus, BaF3; Ba/F3 cells, cell growth inhibition
Text: as §3, §4, §2, §5

[6] = Sprague-Dawley [Crl: CD (SD)], plasma, 10 mg/kg po
[7] = Sprague-Dawley [Crl: CD (SD)], plasma
[8] = Sprague-Dawley [Crl: CD (SD)], plasma, 10 mg/kg po, read-out: Tmax
[9] = Mus musculus, BaF3, 72 h, Ba/F3 cells

COc1cc(N2CCN(CC3CN(c4ccc5c(c4)C(=O)N(C4CCC(=O)NC4=O)C5=O)C3)CC2)ccc1Nc1ncc(Cl)c(Nc2ccccc2P(C)(C)=O)n1 (stereo not shown) [9b, 5-(3-((4-(4-((5-Chloro-4-((2-(dimethylphosphoryl)phenyl)amino)pyrimidin-2-yl)amino)-3-methoxyphenyl)piperazin-1-yl)methyl)azetidin-1-yl)-2-(2,6-dioxopiperidin-3-yl)isoindoline-1,3-dione]
DC50 (ROS1): 10 nM | Dmax (%) (ROS1) (ROS1): 96% | metabolic stability in rat microsomes Clint [1]: 13.8 µL/min/mg | metabolic stability in rat microsomes T1/2 [1]: 1.675 h | IC50 (Ba/F3 ROS1-G2032R): 153 ± 20 nM | metabolic stability in human microsomes Clint [2]: 119.5 µL/min/mg | metabolic stability in human microsomes T1/2 [2]: 0.483 h | AUC (po) ([3]; 10 mg/kg po): 41,622 h·ng/mL | Cmax ([3]; 10 mg/kg po): 4582 ng/mL | T1/2 ([3]; 10 mg/kg po): 4.11 h | Tmax ([3]; 10 mg/kg po): 3 h | % F ([3]; 10 mg/kg po vs 2 mg/kg iv): 16.5% | AUC (iv) ([4]; 2 mg/kg iv): 50,451 h·ng/mL | log P (Log P measurement): 2.84 | IC50 ([5]; Ba/F3 cells): 13 ± 2 nM

COc1cc(N2CCC(N3CCN(CC4CN(c5ccc6c(c5)C(=O)N(C5CCC(=O)NC5=O)C6=O)C4)CC3)CC2)ccc1Nc1ncc(Cl)c(Nc2ccccc2P(C)(C)=O)n1 (stereo not shown) [9e, 5-(3-((4-(1-(4-((5-Chloro-4-((2-(dimethylphosphoryl)phenyl)amino)pyrimidin-2-yl)amino)-3-methoxyphenyl)piperidin-4-yl)piperazin-1-yl)methyl)azetidin-1-yl)-2-(2,6-dioxopiperidin-3-yl)isoindoline-1,3-dione]
DC50 (ROS1): 5.1 nM | Dmax (%) (ROS1) (ROS1): 97% | microsomal CLint at 1 h, 0.25 µM [1]: 12.8 µL/min/mg | half-life at 1 h, 0.25 µM [1]: 1.8 h | IC50 (Ba/F3 ROS1-G2032R; Mus musculus, BaF3): 80 ± 27 nM | microsomal CLint at 1 h, 0.25 µM [2]: 57 µL/min/mg | half-life at 1 h, 0.25 µM [2]: 1.01 h | Cmax at 24 h [3, 6]: 3240 ng/mL | half-life [3, 6]: 7.7 h | bioavailability [3, 7]: 12.2% | AUC [3, 6]: 25400 ng·h/mL | Tmax [3, 8]: 2 h | AUC (iv) ([4]; 1 mg/kg iv): 20,850 h·ng/mL | logP (Log P measurement): 2.5 | IC50 [5, 9]: 3.8 ± 0.2 nM

COc1cc(N2CCC(N3CCN(CC4CCN(c5ccc6c(c5)C(=O)N(C5CCC(=O)NC5=O)C6=O)CC4)CC3)CC2)ccc1Nc1ncc(Cl)c(Nc2ccccc2P(C)(C)=O)n1 (stereo not shown) [9f, 5-(4-((4-(1-(4-((5-Chloro-4-((2-(dimethylphosphoryl)phenyl)amino)pyrimidin-2-yl)amino)-3-methoxyphenyl)piperidin-4-yl)piperazin-1-yl)methyl)piperidin-1-yl)-2-(2,6-dioxopiperidin-3-yl)isoindoline-1,3-dione]
DC50 (ROS1): 13 nM | Dmax (%) (ROS1) (ROS1): 99% | microsomal CLint at 1 h, 0.25 µM [1]: 8.8 µL/min/mg | half-life at 1 h, 0.25 µM [1]: 2.62 h | IC50 (Ba/F3 ROS1-G2032R; Mus musculus, BaF3): 27 ± 10 nM | microsomal CLint at 1 h, 0.25 µM [2]: 63.4 µL/min/mg | half-life at 1 h, 0.25 µM [2]: 0.917 h | Cmax at 24 h [3, 6]: 284 ng/mL | half-life [3, 6]: 8.32 h | bioavailability [3, 7]: 9.8% | AUC [3, 6]: 3030 ng·h/mL | Tmax [3, 8]: 2 h | AUC (iv) ([4]; 1 mg/kg iv): 3093 ng·h/mL | logP (Log P measurement): 2.88 | IC50 ([5]; Ba/F3 cells): 11 ± 2 nM | IC50 [5, 9]: 11.2 nM

CN1CCN(c2ccc(C(=O)Nc3n[nH]c4ccc(Cc5cc(F)cc(F)c5)cc34)c(NC3CCOCC3)c2)CC1 [entrectinib]
IC50 (Ba/F3 ROS1 L2086F): 506 ± 97 nM | IC50 (Ba/F3 ROS1-G2032R; Mus musculus, BaF3): 980 ± 77 nM | IC50 (Ba/F3 ROS1 D2033N): 132 ± 15 nM | IC50 (Ba/F3 ROS1 G2032R-F2075V): > 2000 nM | IC50 (Ba/F3 ROS1 L2026M): 56 ± 7 nM | IC50 ([5]; Mus musculus, BaF3, Ba/F3 cells): 2.4 ± 0.4 nM

Reference: article PMC11513893, “Discovery of Oral Degraders of the ROS1 Fusion Protein with Potent Activity against Secondary Resistance Mutations” (Journal of Medicinal Chemistry, 2024)
